{"source": "patent US8383162B2", "about": "(priority 2006, dated 2013)", "key": {"[1]": {"test_system": "rats", "conditions": "rat, in vivo"}, "[2]": {"test_system": "rats", "conditions": "rat, in vivo", "remark": "listed apart in the source"}, "[3]": {"test_system": "synaptosomes", "type": "cell-based"}, "[4]": {"test_system": "rats", "conditions": "rat, in vivo", "remark": "listed apart in the source"}, "[5]": {"test_system": "nerve ending spinal cord of rats", "type": "cell-based"}, "[6]": {"test_system": "rats", "conditions": "rat, in vivo", "remark": "listed apart in the source"}, "[7]": {"test_system": "N-type calcium channels on neuronal pre-synaptic membrane", "type": "cell-based"}, "[8]": {"test_system": "central nervous system cells", "test": "Acute toxicity and electrical excitability in central nervous system cells"}, "[9]": {"molecular_target": "T1, N-type calcium channels (Homo sapiens, UniProt Q00975)", "T1 construct": "expressed in transfected cells; host or cells: HEK cells", "T1 sequence (Q02641 whole entry)": "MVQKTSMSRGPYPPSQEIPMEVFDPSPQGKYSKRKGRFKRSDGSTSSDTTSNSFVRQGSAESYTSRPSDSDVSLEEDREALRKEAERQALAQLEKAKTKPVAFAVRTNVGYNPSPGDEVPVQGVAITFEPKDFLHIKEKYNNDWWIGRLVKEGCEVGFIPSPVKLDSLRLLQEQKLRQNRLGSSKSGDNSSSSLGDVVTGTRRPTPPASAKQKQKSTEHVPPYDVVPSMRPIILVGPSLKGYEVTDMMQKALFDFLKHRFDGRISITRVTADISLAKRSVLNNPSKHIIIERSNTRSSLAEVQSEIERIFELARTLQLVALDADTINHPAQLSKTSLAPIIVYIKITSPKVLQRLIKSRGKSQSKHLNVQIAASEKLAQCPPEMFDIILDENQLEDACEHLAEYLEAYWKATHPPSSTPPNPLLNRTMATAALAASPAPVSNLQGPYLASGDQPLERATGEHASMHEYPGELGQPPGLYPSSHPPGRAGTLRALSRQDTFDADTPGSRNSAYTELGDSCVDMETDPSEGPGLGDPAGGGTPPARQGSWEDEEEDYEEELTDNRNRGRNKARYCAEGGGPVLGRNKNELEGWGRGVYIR", "T1 sequence (P54289 957-1103, further chain)": "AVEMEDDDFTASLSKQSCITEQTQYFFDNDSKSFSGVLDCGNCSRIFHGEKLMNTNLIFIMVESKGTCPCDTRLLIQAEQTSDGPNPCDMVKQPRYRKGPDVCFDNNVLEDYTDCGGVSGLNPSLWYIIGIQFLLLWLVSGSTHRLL", "T1 sequence (P54289 25-956, further chain)": "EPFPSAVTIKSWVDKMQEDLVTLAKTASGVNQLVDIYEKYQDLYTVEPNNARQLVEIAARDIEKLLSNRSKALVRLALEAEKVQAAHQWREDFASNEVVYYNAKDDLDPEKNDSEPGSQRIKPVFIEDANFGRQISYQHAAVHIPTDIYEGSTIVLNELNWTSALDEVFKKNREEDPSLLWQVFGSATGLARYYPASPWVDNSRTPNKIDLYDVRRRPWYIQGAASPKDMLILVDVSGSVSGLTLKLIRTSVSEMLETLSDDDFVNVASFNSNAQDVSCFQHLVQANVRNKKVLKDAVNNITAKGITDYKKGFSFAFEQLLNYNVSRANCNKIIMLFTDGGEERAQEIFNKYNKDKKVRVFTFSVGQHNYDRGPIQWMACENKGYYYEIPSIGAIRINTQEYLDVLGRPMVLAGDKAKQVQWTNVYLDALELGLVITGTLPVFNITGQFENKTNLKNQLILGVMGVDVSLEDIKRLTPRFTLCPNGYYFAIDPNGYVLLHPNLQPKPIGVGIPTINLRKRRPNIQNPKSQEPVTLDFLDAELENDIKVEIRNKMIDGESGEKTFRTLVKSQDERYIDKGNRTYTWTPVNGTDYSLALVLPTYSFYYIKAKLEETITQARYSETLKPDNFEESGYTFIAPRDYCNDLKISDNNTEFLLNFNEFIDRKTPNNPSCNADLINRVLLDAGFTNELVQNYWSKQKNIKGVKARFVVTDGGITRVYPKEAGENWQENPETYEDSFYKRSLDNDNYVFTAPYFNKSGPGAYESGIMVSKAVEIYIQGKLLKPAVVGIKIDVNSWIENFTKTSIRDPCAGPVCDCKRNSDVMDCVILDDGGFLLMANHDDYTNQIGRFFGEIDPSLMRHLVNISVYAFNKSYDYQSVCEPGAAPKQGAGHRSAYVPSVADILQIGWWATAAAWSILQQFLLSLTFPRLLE", "T1 sequence (Q00975 whole entry)": "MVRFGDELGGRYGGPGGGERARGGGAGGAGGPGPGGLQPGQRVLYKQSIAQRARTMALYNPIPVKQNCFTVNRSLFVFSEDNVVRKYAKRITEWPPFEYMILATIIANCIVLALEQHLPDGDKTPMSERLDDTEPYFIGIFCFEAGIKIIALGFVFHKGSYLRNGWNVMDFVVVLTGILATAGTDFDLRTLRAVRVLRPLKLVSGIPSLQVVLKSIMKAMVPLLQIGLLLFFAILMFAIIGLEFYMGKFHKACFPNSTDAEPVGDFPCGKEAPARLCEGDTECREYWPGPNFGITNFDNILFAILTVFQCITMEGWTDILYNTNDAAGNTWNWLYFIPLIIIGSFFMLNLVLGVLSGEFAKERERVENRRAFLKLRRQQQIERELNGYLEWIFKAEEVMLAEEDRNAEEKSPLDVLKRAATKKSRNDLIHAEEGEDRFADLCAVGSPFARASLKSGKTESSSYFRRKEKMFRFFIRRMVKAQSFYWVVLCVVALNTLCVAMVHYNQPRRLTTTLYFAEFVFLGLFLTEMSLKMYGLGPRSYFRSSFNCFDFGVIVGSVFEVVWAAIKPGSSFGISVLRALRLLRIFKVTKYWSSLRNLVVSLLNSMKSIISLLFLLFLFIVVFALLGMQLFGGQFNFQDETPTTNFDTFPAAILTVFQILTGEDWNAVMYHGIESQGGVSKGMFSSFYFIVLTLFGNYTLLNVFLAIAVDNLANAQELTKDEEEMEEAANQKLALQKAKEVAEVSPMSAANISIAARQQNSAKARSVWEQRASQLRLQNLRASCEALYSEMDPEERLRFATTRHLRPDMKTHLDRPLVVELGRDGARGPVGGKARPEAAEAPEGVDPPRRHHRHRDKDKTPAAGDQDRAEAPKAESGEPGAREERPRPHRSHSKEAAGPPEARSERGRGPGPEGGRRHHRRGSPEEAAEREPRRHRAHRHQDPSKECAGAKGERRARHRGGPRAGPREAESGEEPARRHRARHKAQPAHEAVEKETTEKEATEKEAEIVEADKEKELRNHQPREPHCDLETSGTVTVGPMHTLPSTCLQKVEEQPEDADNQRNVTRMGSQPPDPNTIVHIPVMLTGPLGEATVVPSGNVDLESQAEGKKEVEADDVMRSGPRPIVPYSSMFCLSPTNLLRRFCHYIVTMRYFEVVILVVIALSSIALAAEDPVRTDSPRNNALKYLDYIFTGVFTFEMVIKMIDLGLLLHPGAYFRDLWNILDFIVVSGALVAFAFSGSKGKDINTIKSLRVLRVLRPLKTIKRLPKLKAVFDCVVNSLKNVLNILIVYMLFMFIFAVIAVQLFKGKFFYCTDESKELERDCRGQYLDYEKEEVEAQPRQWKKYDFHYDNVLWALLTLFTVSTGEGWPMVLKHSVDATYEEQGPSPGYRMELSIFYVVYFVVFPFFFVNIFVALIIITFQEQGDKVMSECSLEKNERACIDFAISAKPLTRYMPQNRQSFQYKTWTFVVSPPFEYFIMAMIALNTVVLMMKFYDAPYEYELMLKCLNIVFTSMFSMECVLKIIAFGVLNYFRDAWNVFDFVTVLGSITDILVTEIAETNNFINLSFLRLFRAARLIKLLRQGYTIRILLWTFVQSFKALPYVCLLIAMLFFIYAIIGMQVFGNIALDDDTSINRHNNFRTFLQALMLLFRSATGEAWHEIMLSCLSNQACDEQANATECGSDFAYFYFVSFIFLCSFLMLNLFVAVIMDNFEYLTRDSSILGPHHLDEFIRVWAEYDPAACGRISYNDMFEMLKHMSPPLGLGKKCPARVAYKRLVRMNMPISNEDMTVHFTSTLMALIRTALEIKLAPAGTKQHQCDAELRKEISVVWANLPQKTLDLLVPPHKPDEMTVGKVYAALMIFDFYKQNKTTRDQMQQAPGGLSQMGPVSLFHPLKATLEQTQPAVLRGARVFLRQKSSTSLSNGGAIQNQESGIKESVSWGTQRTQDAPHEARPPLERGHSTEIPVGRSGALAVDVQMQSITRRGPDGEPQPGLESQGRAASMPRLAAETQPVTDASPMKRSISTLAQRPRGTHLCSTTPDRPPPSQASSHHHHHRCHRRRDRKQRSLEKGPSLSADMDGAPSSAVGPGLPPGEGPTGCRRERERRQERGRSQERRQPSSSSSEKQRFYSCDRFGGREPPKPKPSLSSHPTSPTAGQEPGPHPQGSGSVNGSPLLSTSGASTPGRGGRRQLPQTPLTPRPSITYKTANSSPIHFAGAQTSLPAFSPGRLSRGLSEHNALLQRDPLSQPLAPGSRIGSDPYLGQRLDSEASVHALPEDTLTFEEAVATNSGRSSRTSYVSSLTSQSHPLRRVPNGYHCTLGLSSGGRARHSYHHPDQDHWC", "type": "cell-based, mammalian"}, "[10]": {"test_system": "synaptosomes", "type": "cell-based", "remark": "listed apart in the source"}, "[11]": {"test_system": "HVA calcium channels subtypes (L, N, P/Q and R)", "type": "cell-based, mammalian"}, "[12]": {"test": "Acute, chronic and neurogenic pain after intrathecal bolus pretreatment", "type": "in vivo", "conditions": "pretreatment by intrathecal bolus injection", "description": "In the heat pain model the antinociceptive effect of the Phα1B lasts 24 h."}}, "note": "“Also recorded” adds a separate entry of the source."}
{"compound": "CN1CC[C@]23c4c5ccc(O)c4O[C@H]2[C@@H](O)C=C[C@H]3[C@H]1C5", "note": "[morphine, reference compound]", "values": [{"measurement": "duration of significant effect on hot plate", "setting": "[1]", "result": "up to 5 hours"}]}
{"compound": "Phα1B (ACIPRGEICTDDCECCGCDNQCYCPPGSSLGIFKCSCAHANKYFCNRKKEKCKA)", "values": [{"measurement": "duration of antinociceptive effect in the heat pain model", "setting": "[1]", "result": 24, "unit": "h"}, {"measurement": "efficacy against pain induced on the hot plate test", "setting": "[1]", "result": "higher efficacy than conotoxins"}, {"measurement": "latency period on hot plate, time points with significant increase", "setting": "[1]", "result": "increasing significantly the latency period to 3, 4, 5, 6 and 24 hours"}, {"measurement": "IC50 for the antinociceptive effect", "setting": "[2]", "result": 50.2, "unit": "pmol"}, {"measurement": "antinociceptive effect (pain inhibition), in words", "setting": "[2]", "result": "reduces the pain in rats; also recorded: more effective to inhibit pain; also recorded: higher than that induced by morphine"}, {"measurement": "dose at which maximal inhibition was obtained", "setting": "[2]", "result": 87.2, "unit": "pmol"}, {"measurement": "duration of the antinociceptive effect", "setting": "[2]", "result": "up to 24 hours"}, {"measurement": "effect on stimulated release of glutamate", "setting": "[3]", "result": "blocks; also recorded: blocked the release of glutamate"}, {"measurement": "factor by which antinociceptive doses are lower than doses associated with side-effects (DT50)", "setting": "[4]", "result": "around 15 times"}, {"measurement": "efficacy to inhibit capsaicin-induced release of glutamate", "setting": "[5]", "result": "higher efficacy"}, {"measurement": "ED50 for inhibiting the inflammatory phase of formalin test, comparison", "setting": "[6]", "result": "lower ED50 values"}, {"measurement": "antinociceptive effect on the inflammatory phase of formalin test", "setting": "[6]", "result": "potent and longer antinociceptive effect"}, {"measurement": "effect on capsaicin-induced increase of [Ca2+]i", "setting": "[7]", "result": "inhibition"}, {"measurement": "effect on electrical excitability of the neurons", "setting": "[8]", "result": "does not affect"}, {"measurement": "acute toxicity to the cells tested", "setting": "[8]; central nervous system cells", "result": "not acutely toxic"}, {"measurement": "reversibility of N-type calcium channel inhibition", "setting": "[9]", "result": "reversibly inhibited"}, {"measurement": "IC50", "setting": "[9]; read-out: IC50 for inhibition of N-type calcium channels", "result": 122, "unit": "nM"}, {"measurement": "effect on uptake of 45Ca2+ (calcium influx on depolarized terminal)", "setting": "[10]", "result": "blocks"}, {"measurement": "block of HVA calcium channel subtypes (L, N, P/Q and R)", "setting": "[11]", "result": "reversible block of all four HVA calcium channels subtypes"}, {"measurement": "selectivity among HVA Ca2+ channels", "setting": "[11]", "result": "most potent and effective on N-type; also recorded: measurable preference for N-type channels"}, {"measurement": "effect on acute, chronic and neurogenic pain", "setting": "[12]", "result": "blocks the acute, cronic and neurogenic pain"}]}
